Assays:
AMPA receptors = assay: [3H]AMPA binding (displacement of [3H]AMPA, in the presence of KSCN); conditions: only high affinity binding sites labelled
Procedure: In this test the affinity of a drug for AMPA receptors is determined by measuring the ability to displace [^3H]AMPA from AMPA receptors.
The test was carried out in accordance with a modified version of the method of Honoré, T. and Nielsen, M., Neurosci.Lett. 1985, 54, 27-32. The test was carried out in the presence of KSCN. This means that only the [^3H]AMPA high affinity binding sites were labelled.
The membrane preparations used were obtained in accordance with the method of Ransom, R.W. and Stec, J.Neurochem. 1988, 51, 830-836.

NMDA-receptor = assay: [3H]CPP binding (displacement of [3H]CPP from the transmitter binding site)
AMPA = assay: Cortical wedge model (electrophysiology, rat cortical wedge preparation), AMPA subtype; assay type: cell-based; conditions: receptor subtype AMPA; for EC50: agonist; for Ki: starred in IC50 column (*) = Ki value)
Procedure: (§1) The Cortical wedge model is a test in which slices of rat brain is examined in vitro in order to quantify the effect of ligands at the Glu-receptors and evaluate the pharmacological profile of the ligands (i.e. agonist/antagonist properties). The test was performed as described by Harrison, N.L. and Simmonds, M.A. Br.J. Pharmacol. 1985, 84, 381-391 as modified according to Wheatley, P.L. Br.J.Pharmacol. 1986, 87, 159P.

NMDA = assay: Cortical wedge model (electrophysiology, rat cortical wedge preparation), NMDA subtype; assay type: cell-based; conditions: receptor subtype NMDA; for EC50: agonist; for IC50: antagonist
Procedure: as §1

KAIN = assay: Cortical wedge model (electrophysiology, rat cortical wedge preparation), KAIN subtype; assay type: cell-based; conditions: receptor subtype KAIN
Procedure: as §1

Structure (SMILES)	IC50 (AMPA receptors) [µM]	IC50 (NMDA-receptor) [µM]	EC50 (AMPA) [µM]	Profile (AMPA)	Profile (NMDA)	further results
NC(Cc1c(O)noc1-c1cccs1)C(=O)O (racemic) [Compound 1a, (RS)-2-Amino-3-[3-hydroxy-5-(2-thienyl)isoxazol-4-yl]propionic Acid]	0.28	> 100	5.8	Agonist		
NC(Cc1c(O)noc1-c1ccsc1)C(=O)O (racemic) [Compound 1b, (RS)-2-Amino-3-[3-hydroxy-5-(3-thienyl)isoxazol-4-yl]propionic Acid]	3.5	> 100	43	Agonist		
Cc1ccc(-c2onc(O)c2CC(N)C(=O)O)s1 (racemic) [Compound 1f, (RS)-2-Amino-3-[3-hydroxy-5-(5-methyl-2-thienyl)isoxazol-4-yl]propionic Acid]			130	Agonist		
NC(C(=O)O)c1c(O)noc1-c1ccccc1 (racemic) [Compound 2a, (RS)-2-Amino-2-(3-hydroxy-5-phenylisoxazol-4-yl)acetic Acid]	43	7.5			Part. Ago.#	EC50 (NMDA): 300 µM
NC(C(=O)O)c1c(O)noc1-c1cccs1 (racemic) [Compound 2b, (RS)-2-Amino-2-[3-hydroxy-5-(2-thienyl)isoxazol-4-yl]acetic Acid]					Agonist	EC50 (NMDA): 30 µM
NC(CCCc1c(O)noc1-c1ccccc1)C(=O)O (racemic) [Compound 3a, (RS)-2-Amino-5-(3-hydroxy-5-phenylisoxazol-4-yl)pentanoic Acid]	9	21	240	Agonist		
NC(CCc1c(O)noc1-c1ccc(F)cc1)C(=O)O (racemic) [Compound 4a, (RS)-2-Amino-4-[5-(4-fluorophenyl)-3-hydroxyisoxazol-4-yl]butanoic Acid]	> 100	0.76			Antagonist	IC50 (NMDA): 9 µM
NC(CCc1c(O)noc1-c1ccccc1)C(=O)O (racemic) [Compound 4b, (RS)-2-Amino-4-(3-hydroxy-5-phenylisoxazol-4-yl)butanoic Acid]	> 100	2.5			Antagonist	IC50 (NMDA): 18 µM
NC(CCc1c(O)noc1-c1cccs1)C(=O)O (racemic) [Compound 4c, (RS)-2-Amino-4-[3-hydroxy-5-(2-thienyl)isoxazol-4-yl]butanoic Acid]	> 100	0.19			Antagonist	IC50 (NMDA): 2.5 µM
NC(CCc1c(O)noc1-c1ccsc1)C(=O)O (racemic) [Compound 4d, (RS)-2-Amino-4-[3-hydroxy-5-(3-thienyl)isoxazol-4-yl]butanoic Acid]	> 100	0.7			Antagonist	IC50 (NMDA): 8.6 µM
NC(Cc1c(O)noc1-c1ccccn1)C(=O)O (racemic) [Compound 13a, (RS)-2-Amino-3-[3-hydroxy-5-(2-pyridyl)isoxazol-4-yl)propionic Acid]			55	Agonist		
NC(Cc1c(O)noc1-c1ccncc1)C(=O)O (racemic) [Compound 13b, (RS)-2-Amino-3-[3-hydroxy-5-(4-pyridyl)isoxazol-4-yl]propionic Acid]			7.4	Agonist		
NC(Cc1c(O)noc1-c1ccc(F)cc1)C(=O)O (single isomer, unassigned; (-)) [Compound 14c, (-)-2-Amino-3-[5-(4-fluorophenyl)-3-hydroxyisoxazol-4-yl]propionic Acid]				Antagonist		Ki (AMPA): 337 µM
NC(Cc1c(O)noc1-c1cccs1)C(=O)O (single isomer, unassigned; (-)) [Compound 15a, (-)-2-Amino-3-[3-hydroxy-5-(2-thienyl)isoxazol-4-yl]propionic Acid]				Antagonist		IC50 (AMPA; antagonist): 300 µM
Nc1c(NCc2c(O)noc2-c2ccccc2)c(=O)c1=O [Compound 5a, 4-[(2-Amino-3,4-dioxo-1-cyclobuten-1-yl)aminomethyl]-3-hydroxy-5-phenylisoxazole]	33	22		Antagonist	Antagonist	Profile (KAIN): Antagonist
Nc1c(NCc2c(O)noc2-c2cccs2)c(=O)c1=O [Compound 5b, 4-[(2-Amino-3,4-dioxo-1-cyclobuten-1-yl)aminomethyl]-3-hydroxy-5-(2-thienyl)isoxazole]	38	6.9			Antagonist	IC50 (NMDA): 30 µM
Nc1c(NCc2c(O)noc2-c2ccsc2)c(=O)c1=O [Compound 5c, 4-[(2-Amino-3,4-dioxo-1-cyclobuten-1-yl)aminomethyl]-3-hydroxy-5-(3-thienyl)isoxazole]				Antagonist	Antagonist	
N[C@H](Cc1c(O)noc1-c1ccccc1)C(=O)O [Compound 14b, (R)-(-)-2-Amino-3-(3-hydroxy-5-phenylisoxazol-4-yl)propionic acid]				Antagonist		Ki (AMPA): 290 µM; Profile (KAIN): Antagonist; Ki (KAIN; starred in IC50 column (*) = Ki value)): 950 µM

The next lines start with results.

IC50 (AMPA receptors) [µM]	IC50 (NMDA-receptor) [µM]	EC50 (AMPA) [µM]	Structure (SMILES)	Profile (AMPA)	Profile (NMDA)	further results
		170	NC(Cc1c(O)noc1-c1ccc(F)cc1)C(=O)O (single isomer, unassigned; (+)) [Compound 14d, (+)-2-Amino-3-[5-(4-fluorophenyl)-3-hydroxyisoxazol-4-yl]propionic Acid]	Agonist		
		2.7	NC(Cc1c(O)noc1-c1cccs1)C(=O)O (single isomer, unassigned; (+)) [Compound 15b, (+)-2-Amino-3-[3-hydroxy-5-(2-thienyl)isoxazol-4-yl]propionic acid]	Agonist		
5.5		230	N[C@@H](Cc1c(O)noc1-c1ccccc1)C(=O)O [Compound 14a, (S)-(+)-2-Amino-3-(3-hydroxy-5-phenylisoxazol-4-yl)propionic acid]	Agonist		
